In brackets after ≈: the same amount, converted by molar mass. Activity calls are given as the source filed them. The calls are words filed in the database; no cut-off is given here.
Assays:
[1] = Antiproliferative activity against human HepG2 cells assessed as cell viability at 50 uM after 48 hrs by WST1 assay (reference value: 100%); format: cell-based; settings: read-out: Activity
[2] = biological target: T1, Bile acid receptor (Homo sapiens) (UniProt Q96RI1); test: Transactivation of human FXR expressed in human HeLa cells incubated for 24 hrs by luciferase reporter gene assay relative to GW4064; format: cell-based
T1 sequence (whole entry): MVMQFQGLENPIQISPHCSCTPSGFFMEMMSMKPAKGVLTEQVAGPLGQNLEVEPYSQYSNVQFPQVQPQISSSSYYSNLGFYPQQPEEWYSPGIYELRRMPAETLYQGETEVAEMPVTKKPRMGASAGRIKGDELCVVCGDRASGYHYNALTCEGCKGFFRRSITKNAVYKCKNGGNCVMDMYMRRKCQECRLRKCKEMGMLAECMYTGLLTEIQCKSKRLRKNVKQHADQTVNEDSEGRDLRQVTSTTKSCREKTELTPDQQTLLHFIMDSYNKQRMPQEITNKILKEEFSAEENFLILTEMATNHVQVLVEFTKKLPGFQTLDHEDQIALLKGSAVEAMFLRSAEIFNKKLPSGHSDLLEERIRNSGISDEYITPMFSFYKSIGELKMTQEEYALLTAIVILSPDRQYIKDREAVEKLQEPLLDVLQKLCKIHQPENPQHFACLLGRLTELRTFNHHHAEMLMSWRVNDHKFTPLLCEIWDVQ

[3] = biological target: T2, Peroxisome proliferator-activated receptor gamma (Homo sapiens) (UniProt P37231); test: Transactivation of Gal4-tagged PPARgamma ligand binding domain (unknown origin) expressed in COS7 cells measured after overnight incubation by luciferase reporter gene assay relative to piaglitazone; format: cell-based; settings: Chlorocebus aethiops; COS-7
T2 sequence (whole entry): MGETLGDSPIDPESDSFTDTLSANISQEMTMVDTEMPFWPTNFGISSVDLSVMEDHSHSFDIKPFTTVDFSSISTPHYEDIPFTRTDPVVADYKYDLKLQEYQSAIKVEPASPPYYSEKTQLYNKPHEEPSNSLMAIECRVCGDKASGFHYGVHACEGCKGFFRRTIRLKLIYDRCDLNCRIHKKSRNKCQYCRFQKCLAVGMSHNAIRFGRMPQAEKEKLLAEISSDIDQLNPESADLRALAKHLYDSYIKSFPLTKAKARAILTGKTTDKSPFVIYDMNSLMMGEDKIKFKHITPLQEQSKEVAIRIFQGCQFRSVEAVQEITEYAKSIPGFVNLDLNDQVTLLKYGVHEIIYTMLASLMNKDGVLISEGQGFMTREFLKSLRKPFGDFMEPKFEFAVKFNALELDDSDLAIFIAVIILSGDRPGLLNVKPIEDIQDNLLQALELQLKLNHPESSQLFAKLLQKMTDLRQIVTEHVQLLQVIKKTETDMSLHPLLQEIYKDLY

[4] = biological target: T3, Peroxisome proliferator-activated receptor alpha (Homo sapiens, UniProt Q07869); test: Transactivation of Gal4-tagged PPARalpha ligand binding domain (unknown origin) expressed in COS7 cells measured after overnight incubation by luciferase reporter gene assay; format: cell-based, COS-7
T3 sequence (Q07869 whole entry): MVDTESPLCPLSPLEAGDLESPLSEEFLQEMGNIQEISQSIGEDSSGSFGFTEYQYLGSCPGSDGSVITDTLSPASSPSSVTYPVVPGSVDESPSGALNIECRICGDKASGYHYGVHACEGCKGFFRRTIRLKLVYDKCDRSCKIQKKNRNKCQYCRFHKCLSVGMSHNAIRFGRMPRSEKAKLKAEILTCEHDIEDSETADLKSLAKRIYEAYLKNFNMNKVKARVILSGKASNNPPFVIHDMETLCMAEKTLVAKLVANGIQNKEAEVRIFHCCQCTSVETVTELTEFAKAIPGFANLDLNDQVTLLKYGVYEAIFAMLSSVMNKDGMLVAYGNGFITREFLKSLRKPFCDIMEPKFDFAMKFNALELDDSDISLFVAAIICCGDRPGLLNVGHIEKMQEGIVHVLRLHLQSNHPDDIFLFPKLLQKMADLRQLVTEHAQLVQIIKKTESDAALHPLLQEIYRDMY

[5] = biological target: T4, Peroxisome proliferator-activated receptor delta (Homo sapiens, UniProt Q03181); test: Transactivation of Gal4-tagged PPARdelta ligand binding domain (unknown origin) expressed in COS7 cells measured after overnight incubation by luciferase reporter gene assay; format: cell-based, COS-7
T4 sequence (Q03181 whole entry): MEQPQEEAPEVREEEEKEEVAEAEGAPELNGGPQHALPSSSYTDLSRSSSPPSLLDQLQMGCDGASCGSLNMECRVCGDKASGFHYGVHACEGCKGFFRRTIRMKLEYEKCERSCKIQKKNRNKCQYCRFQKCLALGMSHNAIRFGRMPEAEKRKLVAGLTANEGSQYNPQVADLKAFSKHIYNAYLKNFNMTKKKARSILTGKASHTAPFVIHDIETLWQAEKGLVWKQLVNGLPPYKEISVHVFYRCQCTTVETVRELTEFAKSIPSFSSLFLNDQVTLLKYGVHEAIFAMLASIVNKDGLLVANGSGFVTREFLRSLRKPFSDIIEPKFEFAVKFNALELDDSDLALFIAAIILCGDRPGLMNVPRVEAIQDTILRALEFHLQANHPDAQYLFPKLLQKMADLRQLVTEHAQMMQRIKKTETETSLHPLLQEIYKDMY

[6] = Aqueous solubility of the compound; format: physicochemical; settings: aqueous medium (not specified further)
[7] = biological target: T5, Peroxisome proliferator-activated receptor delta (Homo sapiens) (UniProt Q03181); test: Transactivation of Gal4-tagged PPARdelta ligand binding domain (unknown origin) expressed in COS7 cells measured after overnight incubation by luciferase reporter gene assay relative to L165,041; format: cell-based; settings: Chlorocebus aethiops; COS-7
T5 sequence (whole entry): T4 sequence (Q03181 whole entry)

[8] = Cytotoxic activity against human HepG2 cells assessed as LDH release at 10 uM after 48 hrs by LDH release assay (reference value: 100%)
[9] = Antiproliferative activity against human HepG2 cells assessed as cell viability at 5 uM after 48 hrs by WST1 assay (reference value: 100%); format: cell-based; settings: read-out: Activity
Bile acid receptor = biological target: T6, Bile acid receptor (Homo sapiens, UniProt Q96RI1); test: Transactivation of human FXR expressed in human HeLa cells incubated for 24 hrs by luciferase reporter gene assay; format: cell-based
T6 sequence (Q96RI1 whole entry): T1 sequence (whole entry)

[10] = Cytotoxic activity against human HepG2 cells assessed as LDH release at 5 uM after 48 hrs by LDH release assay (reference value: 100%)
[11] = Cytotoxic activity against human HepG2 cells assessed as LDH release at 30 uM after 48 hrs by LDH release assay (reference value: 100%)
[12] = biological target: T7, Peroxisome proliferator-activated receptor gamma (Homo sapiens, UniProt P37231); test: Transactivation of Gal4-tagged PPARgamma ligand binding domain (unknown origin) expressed in COS7 cells measured after overnight incubation by luciferase reporter gene assay; format: cell-based, COS-7
T7 sequence (P37231 whole entry): T2 sequence (whole entry)

[13] = Antiproliferative activity against human HepG2 cells assessed as cell viability at 10 uM after 48 hrs by WST1 assay (reference value: 100%); format: cell-based; settings: read-out: Activity
[14] = biological target: T5, Peroxisome proliferator-activated receptor delta (Homo sapiens); test: Transactivation of Gal4-tagged PPARdelta ligand binding domain (unknown origin) expressed in COS7 cells at 30 uM measured after overnight incubation by luciferase reporter gene assay; format: cell-based; settings: COS-7
[15] = biological target: T8, Peroxisome proliferator-activated receptor alpha (Homo sapiens) (UniProt Q07869); test: Transactivation of Gal4-tagged PPARalpha ligand binding domain (unknown origin) expressed in COS7 cells at 10 uM measured after overnight incubation by luciferase reporter gene assay; format: cell-based; settings: COS-7
T8 sequence (whole entry): T3 sequence (Q07869 whole entry)

Homo sapiens [16] = organism: Homo sapiens; test: Selectivity index, ratio of EC50 for Gal4-tagged PPARdelta ligand binding domain (unknown origin) to EC50 for human FXR
Homo sapiens [17] = organism: Homo sapiens; test: Selectivity index, ratio of EC50 for Gal4-tagged PPARalpha ligand binding domain (unknown origin) to EC50 for human FXR
Homo sapiens [18] = organism: Homo sapiens; test: Selectivity index, ratio of EC50 for Gal4-tagged PPARgamma ligand binding domain (unknown origin) to EC50 for human FXR
[19] = biological target: T1, Bile acid receptor (Homo sapiens); test: Transactivation of human FXR expressed in human HeLa cells at 30 uM incubated for 24 hrs by luciferase reporter gene assay; format: cell-based
[20] = biological target: T8, Peroxisome proliferator-activated receptor alpha (Homo sapiens); test: Transactivation of Gal4-tagged PPARalpha ligand binding domain (unknown origin) expressed in COS7 cells at 30 uM measured after overnight incubation by luciferase reporter gene assay; format: cell-based; settings: COS-7
[21] = biological target: T1, Bile acid receptor (Homo sapiens); test: Antagonist activity against human FXR expressed in human HeLa cells incubated for 24 hrs by luciferase reporter gene assay; format: cell-based
[22] = biological target: PPAR delta/gamma (Homo sapiens) (UniProt P37231+Q03181); test: Selectivity index, ratio of EC50 for Gal4-tagged PPARgamma ligand binding domain (unknown origin) to EC50 for Gal4-tagged PPARdelta ligand binding domain (unknown origin)
Homo sapiens [23] = organism: Homo sapiens; test: Selectivity index, ratio of EC50 for Gal4-tagged PPARalpha ligand binding domain (unknown origin) to EC50 for Gal4-tagged PPARdelta ligand binding domain (unknown origin)
[24] = Metabolic stability in Sprague-Dawley rat liver microsomes assessed as parent compound remaining at 10 uM measured after 60 mins in presence of NADPH regenerating system by HPLC method (reference value: 97.6 +/- 0.8%); format: ADME; settings: read-out: Stability
[25] = Metabolic stability in Sprague-Dawley rat liver microsomes assessed as parent compound remaining at 10 uM measured after 30 mins in presence of NADPH regenerating system by HPLC method (reference value: 97.6 +/- 0.8%); format: ADME; settings: read-out: Stability
[26] = Metabolic stability in Sprague-Dawley rat liver microsomes assessed as parent compound remaining at 10 uM measured after 15 mins in presence of NADPH regenerating system by HPLC method (reference value: 97.6 +/- 0.8%); format: ADME; settings: read-out: Stability

max activation [2] [%]	max activation [3] [%]	EC50 [4] [µM]	EC50 [5] [µM]	solubility [6] [µM]	max activation [7] [%]	EC50 (Bile acid receptor) [nM]	EC50 [12] [µM]	Activity [14]	max activation [15] [%]	Structure (SMILES)	viability at 48 h, 50 µM [1] [%]	LDH release (% cytotoxicity) at 48 h, 10 µM [8] [%]	viability at 48 h, 5 µM [9] [%]	LDH release (% cytotoxicity) at 48 h, 5 µM [10] [%]	LDH release (% cytotoxicity) at 48 h, 30 µM [11] [%]	viability at 48 h, 10 µM [13] [%]	also measured
18.8	125	3	6.4	1.7 (≈ 0.766 µg/mL)	175	700	2.6			O=C(O)Cc1cccc(NC(=O)c2ccccc2NC(=O)c2ccc(-c3ccccc3)cc2)c1	33.6	-1	96.5	-4.5	72.9	79.5	
22	256					120	9	inactive	44	CC(C)(C)c1ccc(C(=O)Nc2cc(Cl)ccc2C(=O)Nc2cccc(C(=O)O)c2)cc1							Ratio EC50 (Homo sapiens [16]): 100; Ratio EC50 (Homo sapiens [17]): 100; Ratio EC50 (Homo sapiens [18]): 75
22	98	0.21		4.9 (≈ 2.11 µg/mL)			5	inactive		Cc1ccc(NC(=O)c2ccccc2NC(=O)c2ccc(C(C)(C)C)cc2)cc1C(=O)O	82.5	2.2	106	-0.1	28.4	99.6	
	163			2.6 (≈ 1.12 µg/mL)			6.3	inactive		Cc1ccc(C(=O)O)cc1NC(=O)c1ccccc1NC(=O)c1ccc(C(C)(C)C)cc1	72	0.7	95.7	-1.3	37.3	92.2	Activity [19]: inactive; Activity [20]: inactive
	132						5.4	inactive	18	CC(C)(C)c1ccc(C(=O)Nc2ccc(Cl)cc2C(=O)Nc2cccc(C(=O)O)c2)cc1							inhibition [21]: Active
20.9	335	14.4	1.3	6 (≈ 2.55 µg/mL)	147		18			O=C(O)Cc1cccc(NC(=O)c2ccccc2NC(=O)c2ccc3ccccc3c2)c1	89.3	0.3	99.5	-2.4	23.3	115	Ratio EC50 [22]: 13; Ratio EC50 (Homo sapiens [23]): 11; remaining at 1 h, 10 µM [24]: 80.5%; remaining at 0.5 h, 10 µM [25]: 82.3%; remaining at 0.25 h, 10 µM [26]: 91.4%

Reference: ChEMBL document CHEMBL3393039, “Anthranilic acid derivatives as nuclear receptor modulators--development of novel PPAR selective and dual PPAR/FXR ligands” (Bioorg Med Chem, 2015)
